# Entries after “also recorded” stand apart in the source; their conditions may differ.
# Columns and labels:
# [1] = test system: DM1 model flies (Mhc-Gal4 UASi(CTG)480>yw); assay: Drosophila lifespan analyses with oral drug administration; format: in vivo; details: for median survival compared to untreated flies / survival / mean life expectancy of myotonic dystrophy type 1 model flies (summary): oral administration; for survival / mean life expectancy of myotonic dystrophy type 1 model flies (summary): tested at 10 and 100 μM; for increase in mean life compared to that for untreated flies: oral, 29° C.
# Description: Between 50-80 newly emerged flies were collected in freshly prepared tubes containing standard nutritive medium containing apoptosis or autophagic inhibitor drugs or solvent only (water or DMSO). Males and females were kept in different tubes at 29° C. Every day, the number of dead flies was scored. Flies were transferred to new tubes twice a week. NAC, chloroquine and NSCl (Sigma-Aldrich) were tested at 10 and 100 μM and dissolved in water or DMSO following the manufacturer's indications. Survival curves were obtained using the Kaplan-Meier method. Statistical curve comparisons were carried out according to the Gehan-Breslow-Wilcoxon test (α=0.05).
# The effect of a chemical inhibition of apoptosis or autophagy in model flies (Mhc-Gal4 UASi(CTG)480>yw) was studied. Consequently, two different drugs previously described as autophagic inhibitors were tested. N-acetyl cysteine (NAC) blocks reactive oxygen species (ROS) and protects cells by inhibiting autophagy through activation of the PI3K/Akt/mTOR pathway (20), and chloroquine triggers autophagy inhibition raising lysosomal pH and, consequently, the fusion of autophagosome with lysosome, thus preventing lysosomal protein degradation [reviewed in (21)]. Both drugs were assayed at two different concentrations, 10 and 100 μM (FIGS. 5 A, B).
# Additionally, the effects of apoptosis inhibition were assayed. NSCl, a caspase 3 inhibitor, was orally administered.
# [2] = test system: DM1 model flies [Mhc-Gal4 UAS-i(CTG)480>yw]; assay: Histological analysis of indirect flight muscle area in DM1 model flies; format: in vivo, Drosophila; details: oral administration
# Description: Analysis of the indirect flight muscle area in Drosophila thoraces was performed as previously described (13). Briefly, six Drosophila thoraces of three-day-old females were embedded in Epon following standard procedures. After the drying of the resin, semi-thin sections of 1.5 μm were obtained using Ultracut E ultramicrotome system (Reichert & Jung and Leica). Images were taken at 100× magnification with a Leica DM2500 microscope. To quantify muscle area, five images per fly containing IFMs (indirect flight muscles) were converted into binary images. Considering the complete image as 100% of the area, the percentage occupied by pixels corresponding to IFMs was calculated using NIH ImageJ software. P-values were obtained using a two-tailed, non-paired t-test (α=0.05), applying Welch's correction when necessary.
# For that purpose, DM1 model flies were fed with food containing 10 and 100 μM NAC for 7 days.
# Histological analysis of muscles was performed in adult model flies [Mhc-Gal4 UAS-i(CTG)480>yw] and control flies (Mhc-Gal4>yw) which were fed for 7 days at 25° C. with standard media containing 10 and 100 μM NAC. After that period, six female thoraces were subjected to non-fluorescent histological analysis, as described above (FIG. 7).
# DM1 fibroblasts = assay: LysoTracker staining of autolysosomes in DM1 fibroblasts; format: cell-based, human; details: 0.01, 1, 10 and 100 μM, 48 h
# Description: A cell model of DM1 (provided by D. Furling's laboratory, Institute of Myologie, Paris) consisted of normal and DM1 (1300 CTG repeats) immortalized (hTERT) skin fibroblasts expressing conditional MyoD. Fibroblast cells were grown in Dulbecco's Modified Eagle Medium (DMEM) with 4.5 g/L of glucose, 1% of penicillin and streptomycin (P/S) and 10% foetal bovine serum (FBS) (Sigma). For compound testing, fibroblasts were aliquoted in 24-well plate at 3.5×10^4 cells per well. Each well contained a cover slip.
# To this end, a cell model of DM1 was cultured as described above and NAC (Sigma-Aldrich) was added to afford final concentrations of 0.01, 1, 10 and 100 μM before incubating the cultures for 48 hours. To transdifferentiate fibroblasts into myoblasts by inducing expression of MyoD, cells were plated in muscle differentiation medium (MDM) containing DMEM 4.5 g/L glucose with 1% P/S, 2% horse serum, 1% apo-transferrin (10 mg/mL), 0.1% insulin (10 mg/mL) and 0.02% doxycyclin (10 mg/mL). After treatment with NAC, each well was washed twice with PBS and incubated with 100 nM LysoTracker RED-DND99 and 5 μg/mL Hoechst 33258 (Invitrogen and Sigma-Aldrich, respectively) at 37° C. for 30 min and mounted using fluorescence mounting medium (Dako, Glostrup, Denmark). Images from cell culture were obtained using a fluorescence microscope Leica DM4000 B LED at 400× magnification (FIG. 6).
# [3] = test system: Myosin heavy chain (Mhc)-Gal4 UAS-i(CTG)480 flies; assay: Flight assay (landing height); format: in vivo, Drosophila; details: five days
# Description: Flight assays were performed five days after according to (Babcock et al. 2014 PMID: 24561810) using 100 male flies per group. Landing distance was compared between groups taking the compound and controls using t-student test (FIG. 8). The significance threshold was set to p<0.05.
# MBNL1 = MBNL1 nuclear protein levels in DM1 myoblasts (immunofluorescence); format: cell-based, human; details: 0.1, 1, 10 and 100 μM, 24 h
# Description: In order to determine whether NAC modifies MBNL1 protein levels and/or the number of ribonuclear foci, DM1 fibroblasts were transdifferentiated to myoblasts by induction of MyoD expression for 24 h. To this end, fibroblasts were aliquoted in 96-well plate (8×10^3 cells per well) and transdifferentiated to myoblast in DMD media over 24 hours before the addition of NAC was added at concentrations of 0.1, 1, 10 and 100 μM using DMSO and water as vehicle and remained in the media with the compound another 24 hours. Subsequently cells were fixed in 4% paraformaldehyde (PFA) for 10 min at room temperature followed by several washes in PBS 1×. Cells were then permeabilized with 0.3% Triton in PBS (PBT), blocked (PBT 1% donkey serum and 0.5% BSA) for 30 min at room temperature, and incubated with primary antibody (mouse anti-MBNL1 1:200; Sigma) at 4° C. overnight in order to detect MBNL1 with a monoclonal antibody. After several washes with PBT, cells were incubated for 45 min with biotin-conjugated secondary antibody (Sigma) at a 1:200 dilution. Cells were then incubated with ABC solution (ABC kit, VECTASTAIN) for 30 min at room temperature, followed by PBT washes and incubation with streptavidin-FITC (1:200) for 45 min. […] Images were taken using IN Cell Analyzer 2200 Imaging System and MBNL intensity in nuclei was counted using software designed for this system.
# ribonuclear foci = assay: Ribonuclear foci detection in DM1 cells (in situ hybridization); format: cell-based, human; details: 0.1, 1, 10 and 100 μM, 24 h
# Description: In addition, for ribonuclear foci detection, fibroblasts were aliquoted in 96-well plate (1.0×10^4 cells per well). Compound was added 24 hours after plating the cells. After 24 hours incubation with NAC at concentrations of 0.1, 1, 10 and 100 μM using DMSO and water as vehicle, cells were fixed in 4% paraformaldehyde (PFA) for 10 min at room temperature followed by several washes in PBS 1×. Fixed cells were incubated in pre-hybridization buffer (SSC 2×, 30% deionized formamide) for 30 min at room temperature, hybridized with Cy3-(CAG)7-Cy3 labelled probe diluted 1:500 in hybridization buffer (40% formamide, 2×SSC, 0.2% BSA, 10% dextran sulfate, 2 mM vanadyl complex, 10% tRNA (10 mg/mL), 10% herring sperm) for 2 hours at 37° C., washed twice in SSC2× buffer for 15 min at 45° C., washed in PBS 1× for 15 min at room temperature, incubated with Hoechst 33342 (5 mg/mL) diluted 1:2000 in PBS 1× for 20 min at room temperature and mounted with 20% MOWIOL. Images were taken using IN Cell Analyzer 2200 Imaging System and foci number was counted using software designed for this system.
SMILES,"improvement of mean life ([1]; 10 μM (lower concentration), orally administered)",median survival compared to untreated flies ([1]; 10 μM),median survival compared to untreated flies ([1]; 100 μM),survival / mean life expectancy of myotonic dystrophy type 1 model flies (summary) [1],increase in mean life compared to that for untreated flies ([1]; 10 μM in food),increase in mean life compared to that for untreated flies ([1]; 100 μM in food),muscle area of IFM versus water control ([2]; 10 μM),muscle area of IFM versus water control ([2]; 100 μM),autolysosomes (LysoTracker staining) compared to untreated DM1 fibroblasts (DM1 fibroblasts),landing height ([3]; 10 μM in food),landing height ([3]; 100 μM in food),MBNL1 intensity in the nucleus / MBNL1 protein levels (MBNL1),number of ribonuclear foci (ribonuclear foci)
"COc1ccc(CN2C(=O)C(=O)c3cc(S(=O)(=O)N4CCC[C@H]4COc4cccnc4)ccc32)cc1 [NSCl, 1-(4-methoxybenzyl)-5-({(2S)-2-[(3-pyridinyloxy)methyl]-1-pyrrolidinyl}sulfonyl)-1H-indole-2,3-dione]",4 days,improvement in median survival,No effect,improved,–,–,–,–,–,–,–,–,–
"CC(=O)N[C@@H](CS)C(=O)O [NAC, N-acetyl cysteine]",–,increased median survival,increased median survival,more than doubled,at least twice,at least twice,increase in muscle area,increase in muscle area,dramatic decrease of autolysosomes; also recorded: dramatically reduce autolysosomes,significantly higher landing height,significantly higher landing height,remains unchanged,does not modify; also recorded: neither modifies
CCN(CC)CCCC(C)Nc1ccnc2cc(Cl)ccc12 (stereo not shown) [chloroquine],–,increased median survival,increased median survival,more than doubled,at least twice,at least twice,increase in muscle area,–,–,–,–,–,–
